# In the supplement of paper PMC10290057:
# Where a name gives a salt, the structure may show the parent alone.
# Tests used:
# [1] = test system: HCT116; experiment: efficacy (fitted maximal change in viability relative to DMSO control); higher = less cytotoxic (negative = loss of viability); conditions: 48 h
# [2] = test system: HCT116; experiment: AC50 cell viability (CellTiter-Glo); higher = less potent; conditions: 48 h
# 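Wherever AC50 cell viability (CellTiter-Glo) is given: HCT116 colorectal carcinoma cells screened at five concentrations per compound, luminescent viability scaled between DMSO wells and empty wells on each plate, curves fitted per compound.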
# 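Wherever efficacy (fitted maximal change in viability relative to DMSO control) is given: Luminescence-based viability readout, five doses per compound, normalized against on-plate DMSO and empty-well controls, followed by dose-response curve fitting for every drug.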
SMILES,efficacy [1] [%],AC50 cell viability [2] [µM]
C/C=C(/C)C(=O)O[C@H]1C(C)=C2[C@H]([C@@H]1OC(=O)CCCCCCC)[C@@](C)(OC(C)=O)C[C@H](OC(=O)CCC)[C@@]1(O)[C@H]2OC(=O)[C@@]1(C)O [Thapsigargin],-93.2,0.0525
O=C(NCc1ccccc1)c1csc(Nc2ccncn2)n1 [Thiazovivin],-84,20.9
COc1ccc2cc(-c3[nH]c(-c4ccc([S+](C)[O-])cc4)nc3-c3ccncc3)ccc2c1 (stereo not given) [Tie-2 kinase Inhibitor],-89.1,23.5
Cn1c(CCCCCCC(=O)NO)nc2cc(N(CCCl)CCCl)ccc21 [Tinostamustine],-84.7,2.95
Clc1ccc(C(Cn2ccnc2)OCc2ccsc2Cl)c(Cl)c1 (stereo not given) [Tioconazole],-84.3,18.6
NC/1=N/C2=C([NH]C=N2)C(=S)N1 [Tioguanine],-85.8,0.742
"C[N]1C=NC=C1C(N)(C2=CC=C(Cl)C=C2)C3=CC\4=C(C=C3)N(C)C(=O)\C=C4C5=CC(=CC=C5)Cl (stereo not given) [Tipifarnib,Freebase]",-120,20.9
C[N]1C=NC=C1[C@@](N)(C2=CC=C(Cl)C=C2)C3=CC=C4N(C)C(=O)\C=C(\C5=CC=CC(=C5)Cl)C4=C3 [Tipifarnib],-107,9.34
Nc1n[n+]([O-])c2ccccc2[n+]1[O-] [Tirapazamine],-30.4,13.2
O=C1NC(=O)[C@@H](c2c[nH]c3ccccc23)[C@H]1c1cn2c3c(cccc13)CCC2 [Tivantinib (ARQ 197)],-62.9,0.934
COc1cc2nccc(Oc3ccc(NC(=O)Nc4cc(C)on4)c(Cl)c3)c2cc1OC [Tivozanib (AV-951)],-80.3,11.8
Cc1[nH]c(/C=C2\C(=O)Nc3ccc(F)cc32)c(C)c1C(=O)NCCN1CCCC1 [Toceranib],-95.7,8.11
CC[C@@]1(O)C(=O)OCc2c1cc1n(c2=O)Cc2cc3c(CN(C)C)c(O)ccc3nc2-1.Cl [Topotecan hydrochloride],-93,0.59
CCOC(=O)N1c2ccc(C(F)(F)F)cc2[C@@H](N(Cc2cc(C(F)(F)F)cc(C(F)(F)F)c2)C(=O)OC)C[C@H]1CC [Torcetrapib],-45.4,8.33
CN(C)CCOc1ccc(/C(=C(/CCCl)c2ccccc2)c2ccccc2)cc1 [Toremifene citrate],-99.7,20.9
CCC(=O)N1CCN(CC1)C2=C(C=C(C=C2)N3C(=O)\C=C/C4=C3C5=CC(=CC=C5N=C4)C6=CN=C7C=CC=CC7=C6)C(F)(F)F [Torin-1],-60,0.0723
NC1=NC=C(C=C1)C2=CC=C3N=CC\4=C(N(C(=O)\C=C4)C5=CC(=CC=C5)C(F)(F)F)C3=C2 [Torin-2],-96.6,0.166
CC(C)N1N/C(=C2\C=c3cc(O)ccc3=N2)c2c(N)ncnc21 [Torkinib],-125,5.25
CC(C)C[C@@H](C(=O)N[C@H](C(=O)OC1CCCC1)c1ccccc1)[C@H](O)C(=O)NO [Tosedostat],-95.7,4.17
Cc1cc(Nc2cc(N3CCN(C)CC3)nc(Sc3ccc(NC(=O)C4CC4)cc3)n2)[nH]n1 [Tozasertib],-95.2,7.42

SMILES,efficacy [1] [%],AC50 cell viability [2] [µM]
COc1cc2c(cc1O)CCN[C@]21CS[C@@H]2c3c(OC(C)=O)c(C)c4c(c3[C@H](COC1=O)N1[C@@H]2[C@H]2c3c(cc(C)c(OC)c3O)C[C@@H]([C@@H]1O)N2C)OCO4 [Trabectedin],-69.8,0.0121
CN1C(=O)C(=C/2N(C(=O)N(C3CC3)C(=O)C2=C1/NC4=CC=C(I)C=C4F)C5=CC=CC(=C5)NC(C)=O)\C [Trametinib],-62.3,0.0468
CC(/C=C/C(=O)NO)=C\[C@@H](C)C(=O)c1ccc(N(C)C)cc1 [Trichostatin A],-82.3,0.332
CN1\N=C(N)/C2=C[N]([C@@H]3O[C@H](CO[P](O)(O)=O)[C@@H](O)[C@H]3O)C4=C2C1=NC=N4 [Triciribine phosphate],-90.5,2.95
CN1CCN(CCCN2c3ccccc3Sc3ccc(C(F)(F)F)cc32)CC1 [Trifluoperazine hydrochloride],-119,26.3
OC[C@H]1O[C@H](C[C@@H]1O)N2/C=C(C(=O)NC2=O)/C(F)(F)F [Trifluridine],-62.4,2.63
C[C@]12CC[C@H]3[C@@H](CC[C@@]45O[C@@H]4\C(=C(/C[C@]35C)C#N)O)[C@@H]1CC[C@@H]2O [Trilostane],-31.9,13.2
COc1cc(NCc2ccc3nc(N)nc(N)c3c2C)cc(OC)c1OC [Trimetrexate],-77.8,1.05
CC/1=C(\O)C(=O)\C=C2/C1=C\C=C3/[C@@]2(C)CC[C@@]4(C)[C@@H]5C[C@@](C)(CC[C@]5(C)CC[C@]34C)C(O)=O [Tripterin],-98.9,3.32
CC(C)[C@]12O[C@H]1[C@@H]3O[C@@]34[C@@]5(C)CC\C6=C(COC6=O)/[C@@H]5C[C@@H]7O[C@]47[C@@H]2O [Triptolide],-52.7,0.0235
CC(C)[C@]12O[C@H]1[C@@H]3O[C@@]34[C@@]5(C)CC\C6=C(COC6=O)/[C@@H]5C[C@@H]7O[C@]47C2=O [Triptonide],-59.2,0.0295
Cc1c(C)c2c(c(C)c1O)CCC(C)(COc1ccc(CC3SC(=O)NC3=O)cc1)O2 (stereo not given) [Troglitazone],-55.1,18.6
CN1CCc2c(c3ccccc3n2Cc2ccc(C(=O)NO)cc2)C1 [Tubastatin A],-93.8,10.5
CC1=C(OC2=CC3=NC=N[N]3C=C2)C=CC(=C1)NC4=NC=NC5=C4C=C(N\C6=N\C(C)(C)CO6)C=C5 [Tucatinib],-71.1,20.9
C=C1[C@H](OC(=O)/C=C(\C)CC)C[C@@H](C(C)C)[C@@H]2[C@H]([C@@H](C)OC(C)=O)C(=O)C[C@@H]12 [Tussilagone],-67.9,20.9
CN(C)CCN1C(=O)c2cccc3cc(NC(N)=O)cc(c23)C1=O [UNBS-5162],-75,4.68
CCCCNc1ncc2c(-c3ccc(CN4CCN(C)CC4)cc3)cn([C@H]3CC[C@H](O)CC3)c2n1 [UNC2025 (hydrochloride)],-93.7,1.66
CCCCNc1ncc(-c2ccc(CN3CCOCC3)cn2)c(N[C@H]2CC[C@H](O)CC2)n1 [UNC2250],-51.5,3.62
CCCCNc1ncc2c(-c3ccc(F)cc3)nn(C[C@H]3CC[C@H](N)CC3)c2n1 [UNC-569],-83.5,7.23
COc1cc2c(NC3CCN(CC4CCCCC4)CC3)nc(N3CCCN(C(C)C)CC3)nc2cc1OCCCN1CCCCC1 [UNC-0631],-106,7.42
